According to patent publication US11517588B2, “Nanoparticle, preparation process and uses thereof” (National Tsing Hua University, priority 2019, dated 2022):

How the values were obtained:
[1] = pH 7.4
Experimental: Free DNIC and NanoNO were suspended with PBS buffer or acetic buffer (pH 4.0 or 5.5) and then incubated at 37° C. in a 200 rpm Orbital Shaker. At different time points, the solution was harvested, dissolved in DMSO and analysed by a UV spectrophotometer at 360 nm.
The kinetic profile for the decomposition of DNIC and the concomitant release of NO from NanoNO were evaluated under physiological and acidic pH conditions at 37° C. […] Free-form DNIC and NanoNO were incubated in a PBS buffer or acetic buffer at a pH of 4.0-7.4, and DNIC destruction was measured using a UV spectrophotometer at 360 nm (n=5 independent samples). The results are expressed as percentage of the initial DNIC. **P=0.0094 and ***P=0.0004 compared to NanoNO at a pH of 7.4.
Free-form DNIC and NanoNO were incubated in PBS containing 10% fetal bovine serum at 37° C. DNIC destruction was measured using a UV spectrophotometer at 360 nm. The results are expressed as the percentage of the initial DNIC (n=3 samples). All data are shown as the mean value± the s.e.m.

[2] = test system: orthotopic HCA-1 HCC tumors; test: Tissue distribution of DNIC and NO release in tumors; parameters: species or system C3H mice; details: mouse, in vivo, iv
Experimental: ID/g, injected dose per gram. *P=0.0159 compared to Free DNIC. […] Next, NBD-labeled DNIC was used to track the intracellular delivery of free DNIC and NanoNO, and the NO-specific fluorescence probe DAR-1 was used to assess the penetration of NO released from free DNIC and NanoNO in HCC. In FIG. 4F, microphotographs of HCC tumors show DNIC uptake (green) and NO release (red) four hours after intravenous administration of NBD-DNIC loaded in NanoNO or free-form NBD-DNIC (7.5 mg/kg) to mice. 4',6-diamidino-2-phenylindole (DAPI, a fluorescent dye capable of binding strongly to DNA), blue. Scale bar, 50 μm. The experiments were repeated twice independently. […] NO release (red) was detected using DAR-1 in tumors four hours after intravenous administration of NanoNO or free-form DNIC (10 mg/kg) in mice. The arrowheads indicate perivascular NO gradients. Scale bar, 20 μm. The release of NO was imaged and quantified with a Zeiss LSM 780 confocal microscope (n=7 section images from four mice). The experiments were repeated twice independently. The procedure of distribution of NO in the tumor area was as follows. […] Four hours after administration, mice were sacrificed. Tumor tissues were embedded in Tissue-Tek (OCT compound) and immediately frozen in liquid nitrogen. Tumor tissue was sectioned (10 μm thick) onto slides. […]

HCA-1 cells [3] = test: Invasion and wound healing assays; assay type: cell-based, murine; details: 72 h after treatment
Experimental: The procedure of transwell invasion assay was as follows. Cell invasion was examined using a QCM ECMatrix 24-well Cell Invasion Assay (EMD Millipore, USA). HCA-1 cells were seeded in the top chamber without serum. DMEM-H containing 10% FBS was added to the lower chamber. Following incubation for 72 h, the cells on the lower surface were fixed with 4% paraformaldehyde (PFA, in PBS). The chambers were rinsed in PBS and stained with 1% crystal violet (in 90% ethanol) for 30 min. For each experimental condition, 10 image fields were photographed by microscopy (IX83, Olympus, Japan) and quantified.
FIGS. 7A and 7B show free-form DNIC modulates the TME in metastatic lesions and suppresses metastatic progression of HCC. 7A-7B, Invasion (7A) and wound healing assays (7B) of HCA-1 cells were performed 72 h after treatment with free DNIC at different doses. The experiments were repeated twice independently.

HCA-1 cells [4] = test: EMT phenotype under hypoxic conditions, qRT-PCR; assay type: cell-based, murine; details: hypoxic conditions (1% oxygen), 24 h, dose-dependent manner
Experimental: The mRNA level was determined by qRT-PCR 24 h after treatment with free DNIC at different doses (control and hypoxia, n=3; 0.5 and 1 μM DNIC, n=5; 5 μM DNIC, n=6 biologically independent samples).

[5] = Cumulative release of NO, DAR-1 fluorescence probe; assay type: physicochemical; details: PBS pH 7.4, 37° C.
Experimental: The cumulative release of NO from NanoNO over time was assessed using an NO-specific 4,5-diamino-N,N,N′,N′-tetraethylrhodamine (DAR-1) fluorescence probe.
The release profile of NO from free DNIC or NanoNO was investigated at pH 7.4 at 37° C. Briefly, free DNIC and NanoNO were suspended with PBS buffer. DAR-1 at a final concentration of 20 μM was added to the solution and then incubated at 37° C. on a 200 rpm orbital shaker. At different time points, the solution was harvested, and the fluorescence intensity (excitation at 560 nm, emission at 595 nm) was measured using a microplate reader (Spark 10M, Tecan, Germany).
FIG. 3 is a data diagram of the effect of NanoNO on the cumulative release of nitric oxide. NO release from free-form DNIC and NanoNO under physiological conditions (pH of 7.4). Free-form DNIC and NanoNO were incubated in PBS buffer at pH 7.4, and the release of NO was measured as the fluorescence intensity (excitation at 560 nm and emission at 595 nm) of the NO-specific probe DAR-1. The results are expressed as a fold change compared to time 0 (free DNIC, n=5; NanoNO; n=4 independent samples). *P=0.0159 compared to free DNIC. FL: fluorescence intensity.

PD-L1 = PD-L1 mRNA and protein expression in HCC cells in vitro; assay type: cell-based, murine and human; details: dose-dependent manner
Experimental: The procedure of Western blot analysis was as follows. Cells or tissue were lysed in RIPA lysis buffer. Cell lysates were separated on a 10% acrylamide gel and transferred to a PVDF membrane. Membranes were blocked for 1 h in 5% skim milk and then incubated overnight with polyclonal antibodies against PD-L1 and R-actin (clone 122M4782, Cell Signaling, Danvers, Mass.).
FIG. 6F is a data diagram showing reprogramming of tumor microenvironment by NanoNO. FIG. 6G is a Western blot staining diagram showing reprogramming of tumor microenvironment by NanoNO. PD-L1 mRNA and protein expression in HCA-1 cells was analysed by qRT-PCR (n=3 biologically independent samples) (FIG. 6F) and Western blot analysis (FIG. 6G) After treatment with free-form DNIC in vitro. The experiments were repeated twice independently.

HUVECs = test: Expression of pro-angiogenic and vessel stabilizing factors, RT-qPCR; assay type: cell-based, human; details: DNIC 1 μM, 24 h
Excerpt: (§1) The procedure of reverse transcription quantitative real time PCR was as follows. Total RNA was extracted from HUVECs or flow-sorted tumor-associated macrophages using the RNeasy Mini Kit (Qiagen, Calif., USA). cDNAs were synthesized using the High-Capicity cDNA Reverse Transcription Kit (Applied Biosystems, Calif., USA). Primers specific for Arignase-1, CCL17, CCL22, IL10, MRC1, CXCL9, IL-1β, TNF-α, CXCL-11, NOS2, NOS3, Snail, Slug, Zeb1, Zeb2, Trim28, Fibronectin, Vimentin, E-cadherin, PD-L1, S1PR1, ANGPT1, PDGF-B, VEGFA, ANGPT2, EGF, IL-6, PPARγ, TGFβ, GAPDH and β-actin were used (Table 2), and relative gene expression was determined using Real-Time SYBR Green PCR Master Mix (Applied Biosystems, Calif., USA) on a QPCR System. The comparative threshold cycle method was used to calculate fold change in gene expression, which was normalized to β-actin.
NO acts as a crucial modulator in regulating angiogenesis and maintaining the vasculature function in TME. […]
FIG. 5A is a data diagram of normalized tumor blood vessels in HCC by low-dose NanoNO. Expression of the pro-angiogenic and vessel stabilizing factors in HUVECs 24 h after treatment with DNIC (1 μM) measured by RT-qPCR. The results are expressed as the fold change relative to the untreated control group (n=9 biologically independent samples). […]

[6] = mouse, in vivo, iv
Experimental: The pharmacokinetics and biodistribution of NanoNO in orthotopic murine HCC models generated using HCA-1 were evaluated.
The procedure of pharmacokinetic and tissue distribution study was as follows. C3H/HeNCrNarl male mice with orthotopic implants of HCA-1 cells were injected intravenously with free DNIC (10 mg/kg) or NanoNO (7.5 mg/kg). At different time points, 200 μL of blood was collected from the orbital sinus and mixed with 50 μL of 1000 U/mL heparin (Sigma, USA). For evaluation of tissue distribution, four hours after administration, the mice were sacrificed. The tissues were collected and homogenized in lysis buffer (10 mM Tris-HCl, 1% Triton X-100, 0.1% SDS, 0.1% SDC and 140 mM NaCl). The tissue lysates were kept on ice for 30 min and centrifuged at 25,001 rcf at 4° C. for 30 min, and the supernatants were collected. The DNIC signal was measured by electron paramagnetic resonance (EPR plus, Bruker, Germany). HSCH2CH2OH (1 mM) was added to the serum or tissue lysates to transform all the DNICs into the EPR-active form for analysis. The DNIC concentration was calculated according to a standard curve obtained by the amounts of DNIC or NanoNO.
Non-compartmental analysis was employed for the pharmacokinetic parameter analysis. AUC, area under the curve; CL, clearance; h, hour; t1/2, half-life; Vss, steady state volume of distribution.

Macrophage = Macrophage polarization after treatment of DNIC in vitro (qPCR); assay type: cell-based, human
Excerpt: The murine hepatocellular carcinoma (HCC) cell line HCA-1 and the human HCC cell lines JHH-7, Hep3B and human lung fibroblasts (HLF) were provided by Dr. Dan Duda (Massachusetts General Hospital, Boston). The human HCC cell line Mahlavu was provided by Dr. Han-Chung Wu (Academia Sinica, Taiwan). The human monocyte cell line THP-1 (ATCC® TIB-202™) was purchased from ATCC. HUVECs (BCRC H-UV001) were obtained from the Bioresource Collection and Research Center, Food Industry Research and Development Institute (Hsinchu, Taiwan). Cell lines were authenticated and tested for mycoplasma. HCA-1 and Mahlavu cells were cultured in high-glucose Dulbecco's modified Eagle's medium (DMEM); JHH-7 and HLF cells were cultured in DMEM/F12 medium; Hep3B cells were cultured in Minimum Essential Medium Alpha (MEMα) (Sigma-Aldrich, St. Louis, Mo.); THP-1 cells were maintained in RPMI-1640 (Corning, N.Y.). All media were supplemented with 10% fetal bovine serum (FBS) and 1% antibiotics (penicillin and streptomycin, HyClone, Logan, Utah). The HUVECs were cultured in Medium 199 (Sigma-Aldrich, St. Louis, Mo.) containing 20% FBS, ECGS (30 μg/mL), heparin (25 U/mL) and L-glutamine (2 mM). THP-1 cells were differentiated into macrophages by 72 h incubation with 20 ng/mL phorbol 12-myristate 13-acetate (PMA, Sigma-Aldrich, St. Louis, Mo.).
as §1

SP1 = SP1 luciferase reporter; assay type: cell-based, murine; details: free-form DNIC 0.5 μM, 24 h, HCA-1 cells
Experimental: The procedure of DNIC triggered activation of SP1 in HCA-1 HCC cells was as follows. HCA-1 cells expressing SP1 reporter (Qiagen, Germany) were established by transfection using Lipofectamine® 2000 (Thermo Fisher Scientific, USA). The cells were then treated with free-form DNIC. After 24 h incubated, the cells were lysed and luciferase signal was measured by microplate reader (Spark 10M, Tecan, Germany).
Data are pooled from two independent experiments. […] Analysis was performed using two-tailed Mann-Whitney U test.

O=[N][Fe]1([N]=O)[S](CCO)[Fe]([N]=O)([N]=O)[S]1CCO [Free DNIC, Fe(μ-SCH2CH2OH)2(NO)4]
half-life of DNIC (DNIC destruction) [1]: 3.9 ± 1.5 h | accumulation of DNIC in HCC tumors [2]: poorly delivered and accumulated in the tumor | migration and invasion of HCA-1 cells (HCA-1 cells [3]): significantly inhibited the migration and invasion | EMT markers and E-cadherin expression (HCA-1 cells [4]): prevented the increase in epithelial-mesenchymal transition (EMT) markers | in vitro release of NO [5]: proceeded at a rapid rate during the first two hours | PD-L1 expression in murine and human HCC cells in vitro (PD-L1): significantly reduced PD-L1 expression | expression of pro-angiogenic genes (VEGF, ANGPT2, and EGF) (HUVECs): downregulated | expression of vessel maturation-related genes (S1PR1 and ANGPT1) (HUVECs): significantly upregulated | CL [6]: 0.46 mL/min/kg | Vss [6]: 0.0327 L/kg | t1/2 [6]: 1.27 h | macrophage polarization in vitro (Macrophage): did not directly affect macrophage polarization | Gene expression Arg-1 (M2 type) (Macrophage; DNIC 0.5 μM): 1.08 ± 0.26 | Gene expression CCL-17 (M2 type) (Macrophage; DNIC 0.5 μM): 1.06 ± 0.13 | Gene expression CCL-22 (M2 type) (Macrophage; DNIC 0.5 μM): 0.96 ± 0.11 | Gene expression CXCL-9 (M1 type) (Macrophage; DNIC 0.5 μM): 1.22 ± 0.17 | Gene expression CXCL-11 (M1 type) (Macrophage; DNIC 0.5 μM): 2.02 ± 0.79 | Gene expression IL-1b (M1 type) (Macrophage; DNIC 0.5 μM): 1.13 ± 0.07 | Gene expression IL-6 (M1 type) (Macrophage; DNIC 0.5 μM): 1.16 ± 0.03 | Gene expression MRC1 (M2 type) (Macrophage; DNIC 0.5 μM): 1.00 ± 0.17 | Gene expression PPARγ (M2 type) (Macrophage; DNIC 0.5 μM): 0.92 ± 0.05 | Gene expression TGF-β (M2 type) (Macrophage; DNIC 0.5 μM): 1.11 ± 0.06 | Gene expression TNF-α (M1 type) (Macrophage; DNIC 0.5 μM): 0.95 ± 0.08 | Gene expression iNOS (M1 type) (Macrophage; DNIC 0.5 μM): 1.10 ± 0.35 | Gene expression Arg-1 (M2 type) (Macrophage; DNIC 1 μM): 1.27 ± 0.28 | Gene expression CCL-17 (M2 type) (Macrophage; DNIC 1 μM): 1.19 ± 0.27 | Gene expression CCL-22 (M2 type) (Macrophage; DNIC 1 μM): 1.07 ± 0.22 | Gene expression CXCL-9 (M1 type) (Macrophage; DNIC 1 μM): 1.22 ± 0.53 | Gene expression CXCL-11 (M1 type) (Macrophage; DNIC 1 μM): 1.85 ± 0.72 | Gene expression IL-1b (M1 type) (Macrophage; DNIC 1 μM): 1.21 ± 0.04 | Gene expression IL-6 (M1 type) (Macrophage; DNIC 1 μM): 1.27 ± 0.08 | Gene expression IL-10 (M2 type) (Macrophage; DNIC 1 μM): 1.22 ± 0.14 | Gene expression MRC1 (M2 type) (Macrophage; DNIC 1 μM): 1.19 ± 0.16 | Gene expression PPARγ (M2 type) (Macrophage; DNIC 1 μM): 0.91 ± 0.13 | Gene expression TGF-β (M2 type) (Macrophage; DNIC 1 μM): 0.95 ± 0.03 | Gene expression TNF-α (M1 type) (Macrophage; DNIC 1 μM): 0.94 ± 0.11 | Gene expression iNOS (M1 type) (Macrophage; DNIC 1 μM): 0.93 ± 0.47 | SP-1 luciferase activity (SP1): significantly decreased
